System: S-180 cells
Source text: Healthy adult male mice of BALB/c strain (hereinafter, “animals”) weighing between 18 to 22 g were selected randomly. The animals were divided in to six groups. Each animal was identified by color marking. Each cage was identified by a label according to the group. The label contained the name of experiment, number of mice in that cage, dose (mg/kg) and date of initiation and completion of experiment. The groups received treatments for a period of 15 days. On Day 16, samples of blood were withdrawn, under anesthesia, from orbital sinus of the animals. The samples were collected in tubes containing Heparin as an anticoagulant.
Group I was treated as vehicle control and received vehicle (Corn oil) orally, in equal volume as in treatment groups. Group II received only tumor cells (1×10^6 cells) intra-peritoneally. Group III received tumor cells (1×10^6 cells) and cyclophosphamide (150 mg/kg body weight) intra-peritoneally. Group IV and Group V received Tumor cells and BV-3115 at 100 mg/kg body weight and 250 mg/kg body weight respectively.
A group of male mice approximately 7-8 weeks old and weighing between 18-22 gm were used for this study. Animal room temperature & relative humidity were maintained at 22-30 C. and 30-70% respectively. All mice were given free access to purified water (Purified with Aquaguard) & standard pelleted laboratory animal feed. After acclimation period of 7 days, each animal was weighed and then the animals were randomly selected according to body weights and allocated to the different treatment groups, so that mean body weights of groups were not statistically different before starting the experiment. Tumor implantation with S-180 cells 1×10^6 cells I.P. to all groups except group I (sham control no tumor, no drug).

[1] = all treatment groups, Day 16 blood

SMILES: O=P1(N(CCCl)CCCl)NCCCO1 (stereo not drawn) [cyclophosphamide]
- mortality (BALB/c mice, 15 days, cyclophosphamide 150 mg/kg i.p., BV-3115 100 and 250 mg/kg, combination with BV-3115 100 mg/kg): No mortality
- body weight compared to Group I (Group III, cyclophosphamide 150 mg/kg i.p., P<0.05): normal weight gain till Day 10, thereafter sudden decrease in weights
- body weight on day 15 (S-180 cells 1×106 I.P., vs sham control / tumor group): reduced the body weight alarmingly lower than sham control
- platelets compared with Group I (vehicle control) (all treatment groups): comparable to Group I
- body weight compared to Group II (tumor cells only) (all treatment groups (III, IV, V and VI)): significant decrease in body weight
- RBC count [1]: increased in varying degrees
- hemoglobin content [1]: increased in varying degrees
- white blood cells compared with Group II (group III (cyclophosphamide) and VI (combination), P<0.05): statistically significant decrease in white blood cells
- clinical signs (other groups: cyclophosphamide 150 mg/kg, BV-3115 100 mg/kg, combination): No clinically abnormal signs

Reference: patent publication US20170119835A1, “METHOD OF MAKING AN ADJUNCT TO […] OF RIBOSOMAL FUNCTIONS IN TUMOR CELLS AND PREVENT BODY WEIGHT LOSS DURING CYCLOP[…] THERAPY” (priority 2009, published 2017)
